The values that follow are results of earlier work, collected in patent publication US7022724B2, “Cognition enhancing derivatives of isoxazole triazoloindane GABA-A α5 receptor subunit ligands” (Merck Sharp & Dohme Ltd., priority 2001, dated 2006).

For data set [1] the following is noted: background statement.
For data set [2] the following is noted: reported by McNamara and Skelton, Psychobiology 21:101–108.

`COC(=O)c1cc2c(cn1)[nH]c1ccccc12` [β-CCM]: in data set [1], the proconvulsant effect entry is on record as “proconvulsant”. Besides, the “spatial learning in the Morris watermaze” value in data set [2] is given as “enhanced spatial learning”.
